PMC9065678, “BI 1015550 is a PDE4B Inhibitor and a Clinical Drug Candidate for the Oral Treatment of Idiopathic Pulmonary Fibrosis” (Frontiers in Pharmacology, 2022)

Assays:
Col3A1 mRNA expression = experiment: TGF-β-induced Col3A1 mRNA expression in IPF lung fibroblasts (Taqman); assay type: cell-based, human
Method: Fibroblasts from donors with IPF (IPF-LF) (Asterand, Detroit, MI, United States) were grown in fibroblast basal medium (CC-3131, Lonza Walkersville, Inc., Walkersville, MD, United States) supplemented with FGM-2 SingleQuot Kit Supplements and Growth Factors (CC-4126, Lonza). Cells were grown in a humidified incubator at 37°C and 5% CO2. All assays were performed at passage 7 or 8. For assay set-up, cells were seeded in fibroblast growth medium plus supplements in assay-relevant densities. For TGF-β-stimulated assays, cells were seeded at 4,500 cells per well in 96-well plates. Proliferation assays were performed in 96-well plates at an initial seeding cell density on day 0 of 2,000 cells per well. After 24-h, the cell culture medium was changed to starvation medium (fibroblast basal medium without supplements). […]
For determination of Col1A1, Col3A1, and FN mRNA expression, IPF-LF cells were stimulated with TGF-β (4 ng/mL) for 48 h. […] Quantitative real-time polymerase chain reactions were set up using the TaqMan™ Fast Advanced Master Mix (Applied Biosystems, Carlsbad, CA, United States) and species-specific gene expression assays: Col1A1 #Hs00164004_m1 FAM, Col3A1 #Hs0094309_m1 FAM, FN #Hs01549976_m1 FAM, 18S #4310893E. […] Fold-change of gene expression was calculated by the Viia7 software (regulation based upon housekeeper).

PDE3A = target: T1, PDE3A (Homo sapiens, UniProt Q14432); experiment: Recombinant PDE activity, scintillation proximity assay: PDE3A; assay type: biochemical; settings: calculated IC50
T1 construct: made in house; host or cells: SF9 insect cells (baculovirus, Bac-To-Bac, pFastbac)
Source text: For the preparation of human recombinant PDEs of interest, the Bac-To-Bac baculoviral expression system from Invitrogen (Carlsbad, CA, United States) was used according to the instruction manual. In short, the full-length open reading frames of PDE1C (National Center for Biotechnology Information Gene-Ref-Seq identifier NG_051183), PDE3A (NG_030033), PDE4A (NG_029594, AA 156–886), PDE4C (NG_029629), PDE7A (NG_029614), and PDE9A (NG_047067) were cloned into the plasmid vector pFastbac. For PDE4B and PDE4D, active site fragments were used (PDE4B NG_029038: AA 152–484, PDE4D NG_027957, AA 79–438). The plasmids were transformed into DH10Bac bacteria, SF9 insect cells were transfected with the bacmid DNA, and the resulting baculoviruses were stored and used for further rounds of infections. […] The protein content was measured and an equal volume of 87% (v/v) glycerol was added prior to freezing at −20°C. […] The reaction was stopped by addition of 50 µL of yttrium silicate scintillation proximity assay beads (17.8 mg/mL, 18 mM zinc sulfate in H2O) and the amount of produced [^3H]AMP/[^3H]GMP associated was determined using a Wallac Microbeta scintillation counter. […]

[1] = Off-target screening, Cerep high-throughput profile and non-kinase enzyme profile
Plasma protein binding = assay type: in vitro ADME
[2] = system: LPS-stimulated TNF-α release; experiment: LPS-induced TNF-α release in human whole blood; assay type: cell-based; settings: LPS 0.1 µg/mL
Method: Heparinized whole blood was collected from the Aorta abdominalis of WI (Han) male rats (Charles River Laboratories, Sulzfeld, Germany) and from healthy male human donors, and treated with 1 µL (rat) or 2.5 µL (human) of BI 1015550 or vehicle [final DMSO concentration 0.5% (v/v)]. Final assay volumes were 200 μL (rat) and 500 μL (human). After incubation for 30 min at 37°C, 95% humidity, and 5% CO2, cultures were treated with LPS [final concentration 10 µg/mL (rat), 0.1 µg/mL (human)] or saline. After 7 h, plates were centrifuged at 3.200 × g at 4°C for 10 min and plasma was used for cytokine measurement. Meso Scale Discovery (MSD) (Rockville, MD, United States) rat and human pro-inflammatory panels were used for detection of TNF-α and IL-6 in rat plasma [diluted 1:2 (v/v)]) and human plasma [negative control undiluted, other samples diluted 1:200 (v/v)] according to the manufacturer’s instructions.

T1 sequence (Q14432 whole entry): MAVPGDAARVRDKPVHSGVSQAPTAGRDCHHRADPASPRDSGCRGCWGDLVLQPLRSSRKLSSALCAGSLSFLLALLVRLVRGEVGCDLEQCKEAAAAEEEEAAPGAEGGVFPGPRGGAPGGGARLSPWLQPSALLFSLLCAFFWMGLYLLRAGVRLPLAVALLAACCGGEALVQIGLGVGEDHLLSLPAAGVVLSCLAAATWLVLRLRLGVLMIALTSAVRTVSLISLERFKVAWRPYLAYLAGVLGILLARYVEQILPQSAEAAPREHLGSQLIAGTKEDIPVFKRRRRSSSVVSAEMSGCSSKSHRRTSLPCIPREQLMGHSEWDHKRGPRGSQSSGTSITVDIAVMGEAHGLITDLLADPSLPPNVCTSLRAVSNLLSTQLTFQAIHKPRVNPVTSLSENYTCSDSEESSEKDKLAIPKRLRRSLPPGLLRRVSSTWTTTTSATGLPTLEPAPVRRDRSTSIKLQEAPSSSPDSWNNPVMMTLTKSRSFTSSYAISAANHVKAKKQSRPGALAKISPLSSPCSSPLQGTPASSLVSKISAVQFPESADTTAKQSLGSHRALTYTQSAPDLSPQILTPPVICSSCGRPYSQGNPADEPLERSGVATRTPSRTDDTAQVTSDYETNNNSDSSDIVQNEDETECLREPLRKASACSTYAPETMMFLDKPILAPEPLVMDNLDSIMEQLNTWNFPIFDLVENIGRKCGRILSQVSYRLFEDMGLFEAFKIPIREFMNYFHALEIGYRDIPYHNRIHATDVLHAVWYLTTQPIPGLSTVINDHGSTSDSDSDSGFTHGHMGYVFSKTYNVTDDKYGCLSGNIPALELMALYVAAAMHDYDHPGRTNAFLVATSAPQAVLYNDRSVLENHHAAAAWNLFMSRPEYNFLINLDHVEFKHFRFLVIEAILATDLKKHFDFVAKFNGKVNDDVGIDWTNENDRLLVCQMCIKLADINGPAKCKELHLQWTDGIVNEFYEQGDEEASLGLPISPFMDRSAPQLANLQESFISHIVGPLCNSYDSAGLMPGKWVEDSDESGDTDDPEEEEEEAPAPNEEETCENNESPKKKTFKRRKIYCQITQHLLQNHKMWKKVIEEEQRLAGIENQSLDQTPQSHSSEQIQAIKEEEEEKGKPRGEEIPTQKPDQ

[O-][S+]1CCc2nc(N3CCC(c4ncc(Cl)cn4)CC3)nc(NC3(CO)CCC3)c21 (stereo not shown) [BI 1015550]
IC50 (Col3A1 mRNA expression; IPF-LF, TGF-β 4 ng/mL, 48 h, read-out: IC50 TGF-β-induced Col3 mRNA expression): 213 nM
Combination effect in inhibiting Col3 mRNA expression (Col3A1 mRNA expression; combination with nintedanib at 100 nmol/L): additive effects
IC50 (PDE3A): 120 µM
Off-target effects [1]: not shown any other off-target effects
Plasma protein binding (Plasma protein binding): 77%
IC50 [2]: 670 nM
Maximal inhibition of TNF-α release [2]: 70–80%
